Source: patent EP1862549A2, “Target of RNAIII activating protein (TRAP)” (Balaban, Naomi, priority 1998, dated 2007)

How the values were obtained:
S. aureus = settings: animals treated with RIP; cited from earlier work
TRAP = settings: wild type early exponential S. aureus cells incubated in PFB with 32P; PBS as control
Experimental: Wild type early exponential S. aureus cells were incubated for 1 hr in phosphate free buffer (PFB) together with ^32P, with RAP (in PBS) or with PBS only as a control. […] Cells were collected, applied to SDS PAGE, and the gel autoradiographed. The autoradiogram was scanned and the density of the bands determined.
Wild type early exponential S. aureus cells were incubated in PFB with ^32P with either PBS alone, RIP, RAP, or a combination of RIP and RAP. […] The cells were collected, applied to SDS PAGE, the gel autoradiographed, and the relative amounts of TRAP phosphorylation and RNAIII transcription levels determined (Balaban et al. Proc. Natl. Acad. Sci. U.S.A. 92:1619-1623 (1995)). […] The relative levels of TRAP phosphorylation (Fig. 14) and RNAIII transcription (Fig. 15) in the presence of PBS alone (control), RIP, RAP, or RIP and RAP were also determined.

**Q.** For YSPXTNF (SEQ ID NO:3) [RIP], which “protection from an S. aureus infection” value (S. aureus) is on record?
**A.** protected

**Q.** What about the TRAP phosphorylation (TRAP) of the same substance?
**A.** inhibited
